{"source": "ChEMBL document CHEMBL1136213", "about": "“2,6-disubstituted pyran-4-one and thiopyran-4-one inhibitors of DNA-Dependent protein kinase (DNA-PK)” (Bioorg Med Chem Lett, 2003)", "key": {"[1]": {"target": "T1, DNA-dependent protein kinase catalytic subunit (Homo sapiens, UniProt P78527)", "T1 sequence (P78527 whole entry)": "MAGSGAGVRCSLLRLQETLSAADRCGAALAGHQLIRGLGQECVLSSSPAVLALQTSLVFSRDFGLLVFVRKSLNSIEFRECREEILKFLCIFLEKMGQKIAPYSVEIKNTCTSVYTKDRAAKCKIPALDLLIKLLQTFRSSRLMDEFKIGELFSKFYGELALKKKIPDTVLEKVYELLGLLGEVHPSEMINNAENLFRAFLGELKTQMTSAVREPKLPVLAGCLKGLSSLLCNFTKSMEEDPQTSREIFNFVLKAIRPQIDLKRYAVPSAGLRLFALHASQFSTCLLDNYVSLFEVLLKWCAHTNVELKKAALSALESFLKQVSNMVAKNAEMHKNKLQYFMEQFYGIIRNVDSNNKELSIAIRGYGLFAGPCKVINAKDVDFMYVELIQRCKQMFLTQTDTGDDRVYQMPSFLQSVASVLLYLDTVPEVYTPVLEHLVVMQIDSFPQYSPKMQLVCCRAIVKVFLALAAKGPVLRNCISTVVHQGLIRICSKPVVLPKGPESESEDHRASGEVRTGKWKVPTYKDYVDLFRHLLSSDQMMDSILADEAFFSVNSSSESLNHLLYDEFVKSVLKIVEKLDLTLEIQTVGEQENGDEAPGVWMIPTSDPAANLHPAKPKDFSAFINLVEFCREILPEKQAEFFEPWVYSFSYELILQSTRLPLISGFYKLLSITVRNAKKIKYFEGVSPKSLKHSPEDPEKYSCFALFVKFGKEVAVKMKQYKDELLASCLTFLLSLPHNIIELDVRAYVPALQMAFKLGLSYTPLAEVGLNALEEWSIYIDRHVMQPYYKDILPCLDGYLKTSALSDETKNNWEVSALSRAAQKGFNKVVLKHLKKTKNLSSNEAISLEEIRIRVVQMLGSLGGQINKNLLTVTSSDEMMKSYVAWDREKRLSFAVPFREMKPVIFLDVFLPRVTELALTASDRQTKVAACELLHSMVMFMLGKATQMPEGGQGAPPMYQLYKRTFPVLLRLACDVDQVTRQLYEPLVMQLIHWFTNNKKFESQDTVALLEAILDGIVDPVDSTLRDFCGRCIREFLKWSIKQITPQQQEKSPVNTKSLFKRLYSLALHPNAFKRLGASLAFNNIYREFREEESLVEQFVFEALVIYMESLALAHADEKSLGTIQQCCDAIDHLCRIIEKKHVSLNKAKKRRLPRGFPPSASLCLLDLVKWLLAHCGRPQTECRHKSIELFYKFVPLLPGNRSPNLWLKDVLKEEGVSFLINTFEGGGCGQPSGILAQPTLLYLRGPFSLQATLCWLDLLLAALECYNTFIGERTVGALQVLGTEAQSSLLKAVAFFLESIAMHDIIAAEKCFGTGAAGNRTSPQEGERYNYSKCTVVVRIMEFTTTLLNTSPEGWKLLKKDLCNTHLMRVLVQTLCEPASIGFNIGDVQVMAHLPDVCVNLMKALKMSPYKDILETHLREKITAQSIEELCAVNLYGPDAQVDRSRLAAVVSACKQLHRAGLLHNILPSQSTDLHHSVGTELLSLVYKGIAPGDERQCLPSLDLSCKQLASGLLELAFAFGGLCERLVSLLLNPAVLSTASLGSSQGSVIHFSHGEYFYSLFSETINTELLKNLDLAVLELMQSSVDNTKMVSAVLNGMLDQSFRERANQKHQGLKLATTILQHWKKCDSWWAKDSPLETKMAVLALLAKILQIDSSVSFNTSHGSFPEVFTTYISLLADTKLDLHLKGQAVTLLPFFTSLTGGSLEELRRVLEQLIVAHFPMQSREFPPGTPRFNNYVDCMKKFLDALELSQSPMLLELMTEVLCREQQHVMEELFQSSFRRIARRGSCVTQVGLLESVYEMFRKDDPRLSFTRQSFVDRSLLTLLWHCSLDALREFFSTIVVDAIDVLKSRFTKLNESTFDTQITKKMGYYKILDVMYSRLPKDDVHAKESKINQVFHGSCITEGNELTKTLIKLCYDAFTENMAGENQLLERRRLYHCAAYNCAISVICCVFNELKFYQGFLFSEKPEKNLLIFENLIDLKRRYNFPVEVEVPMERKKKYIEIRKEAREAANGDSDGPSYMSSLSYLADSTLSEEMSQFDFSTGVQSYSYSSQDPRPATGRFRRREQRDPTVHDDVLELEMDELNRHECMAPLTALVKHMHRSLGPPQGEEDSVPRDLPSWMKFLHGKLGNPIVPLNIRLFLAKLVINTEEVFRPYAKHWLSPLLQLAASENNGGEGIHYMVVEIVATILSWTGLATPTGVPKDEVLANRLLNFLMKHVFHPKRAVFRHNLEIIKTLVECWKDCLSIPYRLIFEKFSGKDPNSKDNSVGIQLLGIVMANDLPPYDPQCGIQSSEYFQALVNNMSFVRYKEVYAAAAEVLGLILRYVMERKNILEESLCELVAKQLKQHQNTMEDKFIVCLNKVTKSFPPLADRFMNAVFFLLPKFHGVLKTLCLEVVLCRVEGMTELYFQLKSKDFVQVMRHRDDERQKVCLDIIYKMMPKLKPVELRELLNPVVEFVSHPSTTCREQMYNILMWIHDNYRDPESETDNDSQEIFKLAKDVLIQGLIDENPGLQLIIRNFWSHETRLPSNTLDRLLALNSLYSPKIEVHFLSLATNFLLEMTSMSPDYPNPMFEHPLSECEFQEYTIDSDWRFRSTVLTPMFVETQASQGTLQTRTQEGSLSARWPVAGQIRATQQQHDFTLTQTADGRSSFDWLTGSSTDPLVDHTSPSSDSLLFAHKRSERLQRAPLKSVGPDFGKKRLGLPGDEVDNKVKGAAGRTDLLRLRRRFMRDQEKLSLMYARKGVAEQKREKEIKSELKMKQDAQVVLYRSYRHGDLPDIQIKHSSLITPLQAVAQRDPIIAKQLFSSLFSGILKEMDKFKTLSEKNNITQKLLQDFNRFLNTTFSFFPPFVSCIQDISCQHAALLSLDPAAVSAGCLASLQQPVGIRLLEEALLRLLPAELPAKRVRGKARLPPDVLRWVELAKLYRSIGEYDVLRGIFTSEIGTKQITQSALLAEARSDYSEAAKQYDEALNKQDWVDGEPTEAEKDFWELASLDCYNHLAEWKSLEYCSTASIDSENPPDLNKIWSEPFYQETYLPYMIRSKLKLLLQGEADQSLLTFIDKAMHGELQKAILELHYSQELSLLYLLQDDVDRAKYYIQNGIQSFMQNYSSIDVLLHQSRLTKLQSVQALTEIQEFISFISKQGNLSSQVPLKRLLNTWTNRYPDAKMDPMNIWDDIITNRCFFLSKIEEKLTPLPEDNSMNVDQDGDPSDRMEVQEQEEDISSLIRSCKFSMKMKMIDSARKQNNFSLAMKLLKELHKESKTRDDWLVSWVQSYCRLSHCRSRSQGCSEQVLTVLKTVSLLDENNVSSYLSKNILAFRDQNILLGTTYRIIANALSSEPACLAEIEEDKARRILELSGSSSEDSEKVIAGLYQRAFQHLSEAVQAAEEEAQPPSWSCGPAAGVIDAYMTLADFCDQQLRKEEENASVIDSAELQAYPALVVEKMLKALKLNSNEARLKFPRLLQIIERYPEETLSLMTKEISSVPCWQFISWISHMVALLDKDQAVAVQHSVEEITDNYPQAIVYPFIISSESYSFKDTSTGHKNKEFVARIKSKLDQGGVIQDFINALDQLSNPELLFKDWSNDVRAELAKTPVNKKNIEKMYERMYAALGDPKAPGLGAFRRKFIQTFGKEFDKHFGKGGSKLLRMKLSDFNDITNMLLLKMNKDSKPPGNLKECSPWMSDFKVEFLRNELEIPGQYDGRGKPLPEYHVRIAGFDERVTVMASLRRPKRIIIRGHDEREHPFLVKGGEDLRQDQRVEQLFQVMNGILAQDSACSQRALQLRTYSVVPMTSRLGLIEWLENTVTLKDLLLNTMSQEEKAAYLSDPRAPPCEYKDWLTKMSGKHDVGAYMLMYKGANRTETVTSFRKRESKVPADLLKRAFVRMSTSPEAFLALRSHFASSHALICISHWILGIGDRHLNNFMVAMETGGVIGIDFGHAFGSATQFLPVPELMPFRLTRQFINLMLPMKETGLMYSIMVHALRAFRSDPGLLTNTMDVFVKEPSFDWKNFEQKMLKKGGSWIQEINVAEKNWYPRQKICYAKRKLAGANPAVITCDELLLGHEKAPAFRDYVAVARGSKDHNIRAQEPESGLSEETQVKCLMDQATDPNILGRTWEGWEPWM", "assay": "In vitro inhibition of DNA-dependent protein kinase(DNA-PK) from HeLa (human carcinoma) cells.", "format": "cell-based"}, "[2]": {"target": "T1, DNA-dependent protein kinase catalytic subunit", "assay": "Affinity for DNA-dependent protein kinase(DNA-PK) from HeLa cell extract"}}, "data": [{"smiles": "O=c1cc(-c2cccc(-c3ccc(O)cc3)c2)sc(N2CCOCC2)c1", "values": [{"measurement": "IC50", "setting": "[1]", "value": 350, "unit": "nM"}]}, {"smiles": "O=c1cc(N2CCOCC2)oc2c1ccc1ccccc12", "values": [{"measurement": "IC50", "setting": "[1]", "value": 230, "unit": "nM"}]}, {"smiles": "O=c1cc(N2CCOCC2)oc2c(-c3ccccc3)cccc12", "note": "[LY-294002]", "values": [{"measurement": "Ki", "setting": "[2]", "value": 6000, "unit": "nM"}]}]}
